Converted amounts (≈) assume the structure as drawn.
Legend:
Format in all cases: functional
Staphylococcus aureus [1] = test: Antibacterial activity against Staphylococcus aureus SG 511 after 24 hrs by two fold serial dilution method; conditions: SG 511, 24 h
Staphylococcus aureus [2] = test: Antibacterial activity against methicillin resistant Staphylococcus aureus 3089 after 24 hrs by two fold serial dilution method; conditions: Staphylococcus aureus, 3089, 24 h
Escherichia coli = test: Antibacterial activity against multidrug resistant Escherichia coli 1137 after 24 hrs by two fold serial dilution method
Enterococcus faecalis = test: Antibacterial activity against multidrug resistant Enterococcus faecalis 5210 after 24 hrs by two fold serial dilution method
[3] = Enterococcus faecalis, 5210, 24 h

Compound | MIC (Staphylococcus aureus [1]) | MIC (Staphylococcus aureus [2]) | MIC (Escherichia coli; Escherichia coli, 1137, 24 h) | MIC (Enterococcus faecalis; [3]) | MIC (Escherichia coli) | MIC (Enterococcus faecalis)
O=C1NC[C@@H](c2c[nH]c3ccccc23)N[C@H]1c1c[nH]c2cc(Br)ccc12 | 40 µg/mL (≈ 97.7 µM) | > 40 µg/mL | > 40 µg/mL | > 40 µg/mL | – | –
O=C(NCC(=O)c1c[nH]c2cc(Br)ccc12)C(=O)c1c[nH]c2cc(Br)ccc12 | > 40 µg/mL | > 40 µg/mL | > 40 µg/mL | > 40 µg/mL | – | –
CCn1cc(C(=O)O)c(=O)c2cc(F)c(N3CCNCC3)cc21 [NORFLOXACIN] | – | > 40 µg/mL | 1.25 µg/mL (≈ 3.91 µM) | – | – | –
O=c1[nH]cc(-c2c[nH]c3cc(Br)ccc23)nc1-c1c[nH]c2cc(Br)ccc12 | 10 µg/mL (≈ 20.7 µM) | 20 µg/mL (≈ 41.3 µM) | > 40 µg/mL | 20 µg/mL (≈ 41.3 µM) | – | –
CN[C@H](CC(C)C)C(=O)N[C@H]1C(=O)N[C@@H](CC(N)=O)C(=O)N[C@H]2C(=O)N[C@H]3C(=O)N[C@H](C(=O)N[C@H](C(=O)O)c4cc(O)cc(O)c4-c4cc3ccc4O)[C@H](O)c3ccc(c(Cl)c3)Oc3cc2cc(c3O[C@@H]2O[C@H](CO)[C@@H](O)[C@H](O)[C@H]2O[C@H]2C[C@](C)(N)[C@H](O)[C@H](C)O2)Oc2ccc(cc2Cl)[C@H]1O [VANCOMYCIN] | – | 1.25 µg/mL (≈ 0.863 µM) | – | 2.5 µg/mL (≈ 1.73 µM) | – | –
CN(C)[C@@H]1C(O)=C(C(N)=O)C(=O)[C@@]2(O)C(O)=C3C(=O)c4c(O)cccc4[C@@](C)(O)[C@H]3C[C@@H]12 [TETRACYCLINE] | 0.16 µg/mL (≈ 0.36 µM) | – | – | – | – | –
O=C(NCC(=O)c1c[nH]c2ccccc12)C(=O)c1c[nH]c2cc(Br)ccc12 | > 40 µg/mL | > 40 µg/mL | > 40 µg/mL | > 40 µg/mL | – | –
GENTAMICIN | – | – | – | – | > 40 µg/mL | > 40 µg/mL
O=C1NC[C@H](c2c[nH]c3ccccc23)N[C@@H]1c1c[nH]c2cc(Br)ccc12 | 20 µg/mL (≈ 48.9 µM) | > 40 µg/mL | > 40 µg/mL | > 40 µg/mL | – | –
O=c1[nH]cc(-c2c[nH]c3ccccc23)nc1-c1c[nH]c2cc(Br)ccc12 | 2.5 µg/mL (≈ 6.17 µM) | 20 µg/mL (≈ 49.4 µM) | > 40 µg/mL | > 40 µg/mL | – | –
O=C1NC[C@H](c2c[nH]c3cc(Br)ccc23)N[C@@H]1c1c[nH]c2cc(Br)ccc12 | 20 µg/mL (≈ 41 µM) | 40 µg/mL (≈ 81.9 µM) | > 40 µg/mL | > 40 µg/mL | – | –
O=C1NC[C@@H](c2c[nH]c3cc(Br)ccc23)N[C@H]1c1c[nH]c2cc(Br)ccc12 [CIS-3,4-DIHYDROHAMACANTHIN B] | 10 µg/mL (≈ 20.5 µM) | 20 µg/mL (≈ 41 µM) | > 40 µg/mL | 40 µg/mL (≈ 81.9 µM) | – | –
